Several values for one entry are separate records, joined by “and”; a condition that tells them apart may be missing. Equal entries are not always repeated.
Columns and labels:
BTK [1] = experiment: PD data from cyno (BTK degradation); type: in vivo; conditions: blood
Excerpt: In this example, compounds were profiled for activity in non-mouse species.

BTK [2] = molecular target: BTK (Homo sapiens, UniProt Q06187); experiment: Cellular BTK degradation assay (Total BTK HTRF) in TMD8 cells; type: cell-based; set-up: endogenous in cells; host or cells: TMD8; conditions: treatment time 24 h
Experimental: Cellular BTK Degradation Assay
In Vitro Cellular Screening to Determine Potency as Measured by DC50 Values after Four Hour Incubation
BTK levels were determined using Cisbio Total-BTK HTRF (Homologous Time-Resolved Fluorescence) kit (63ADK064PEG) according to the manufacturer's protocol. Briefly, cells were incubated in 1× supplied lysis buffer for 30 minutes. In an opaque white low volume 96-well plate (Cisbio, 66PL96005), cell lysate was combined with two different specific BTK antibodies, one conjugated with Eu^3+-Cryptate FRET donor and one conjugated with d2 FRET acceptor. Assay controls include wells containing cell lysate with only the Eu^3+-Cryptate FRET donor antibody and wells containing both HTRF antibodies and lysis buffer without cells or control lysate provided by Cisbio. HTRF ratio was calculated as (acceptor signal at 665 nm/donor signal at 620 nm)×10^4. Background HTRF levels were determined from the control well containing the donor, but no acceptor, antibody. Background HTRF levels were subtracted from all samples. Readouts were reported as HTRF levels relative to HTRF levels of DMSO-treated cells. Four-parameter non-linear regressions were performed in GraphPad Prism 7.02 to obtain DC50 values.
Cellular BTK degradation was measured as above for four hours in TMD8 cells for two diastereomers of compound 130. DC50 and EC50 values are the concentration at which the response is halfway between the top and bottom of the fitted non-linear regression curve.
The present example evaluates whether potency of BTK CTMs shifts with longer timepoints. DC50 values are typically calculated with a 4-hour timepoint.

[3] = Compound plasma exposure in cyno DRF study; type: in vivo; conditions: cynomolgus monkey, po
[4] = test system: TMD8 BTK C481S tumor cells; experiment: TMD8 BTK C481S xenograft efficacy study; type: in vivo, mouse; conditions: PO
Experimental: […] Tumor growth inhibition (% TGI) were calculated on the final day of measurement using the equation [1−(T−T0/C−T0)]×100, where T and C represent the mean size of tumors in the treated (T) and control (C) groups, and T0 refers to the tumor size at randomization.
This example examines the activity of various BTK CTMs in relevant disease models, including the WT and C481S TMD8 model, which models B cell malignancies with/without inhibitor-driven BTK mutations at C481.

TEC kinase = molecular target: T1, TEC kinase (Homo sapiens, UniProt P42680); experiment: TEC kinase degradation in K562 cells (western blot); type: cell-based; conditions: FIGS. 13A-13D; for effects on TEC kinase levels: four hours, 0.026-2000 nM, western blot
T1 construct: endogenous in cells; host or cells: K562
T1 sequence (P42680 1-631): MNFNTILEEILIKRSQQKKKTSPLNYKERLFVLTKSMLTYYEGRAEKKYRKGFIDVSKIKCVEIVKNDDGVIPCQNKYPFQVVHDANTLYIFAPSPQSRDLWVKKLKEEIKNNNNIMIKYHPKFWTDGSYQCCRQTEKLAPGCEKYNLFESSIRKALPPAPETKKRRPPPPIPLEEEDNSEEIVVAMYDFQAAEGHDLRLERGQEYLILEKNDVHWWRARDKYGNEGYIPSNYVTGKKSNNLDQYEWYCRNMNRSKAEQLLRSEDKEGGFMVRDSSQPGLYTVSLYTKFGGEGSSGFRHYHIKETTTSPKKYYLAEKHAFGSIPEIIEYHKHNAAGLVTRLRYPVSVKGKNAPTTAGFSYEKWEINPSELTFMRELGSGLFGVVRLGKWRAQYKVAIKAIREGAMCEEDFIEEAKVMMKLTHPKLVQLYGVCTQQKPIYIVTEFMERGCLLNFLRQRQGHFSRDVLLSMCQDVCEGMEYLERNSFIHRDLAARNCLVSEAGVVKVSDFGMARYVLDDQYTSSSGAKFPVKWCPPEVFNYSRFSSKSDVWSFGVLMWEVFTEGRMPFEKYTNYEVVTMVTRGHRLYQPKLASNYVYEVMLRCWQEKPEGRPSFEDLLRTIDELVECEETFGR
Experimental: To determine effects of BTK CTMs on TEC levels in cells, K562 cells were treated for four hours with CTMs at concentrations between 0.026-2000 nM. TEC levels in cell lysate was assessed by western blot.

[5] = Compound plasma exposure in cyno DRF study; type: in vivo; conditions: cynomolgus monkey, po; remark: listed apart in the source
Experimental: This example evaluates compound plasma concentration which results in in vivo BTK and/or Aiolos degradation in cyno. The data in the table below is from a study in which animals were dosed daily with the designated oral dose. Analysis for compound concentration in plasma was performed twenty-four hours following the previous dose.

[6] = 10 mg/kg, 10 mg/kg PO, 1 day of dosing
[7] = 30 mg/kg, 30 mg/kg PO, 1 day of dosing
[8] = 100 mg/kg, 100 mg/kg PO, 1 day of dosing
[9] = 100 mg/kg, 100 mg/kg PO, 14 days of dosing
[10] = 30 mg/kg, QD, 23 days of dosing
[11] = 10 mg/kg, 10 mg/kg PO, 14 days of dosing
[12] = 30 mg/kg, 30 mg/kg PO, 14 days of dosing
[13] = 10 mg/kg, QD, 23 days of dosing
[14] = 10 mg/kg, QD, 24 days of dosing
[15] = 30 mg/kg, QD, 24 days of dosing
[16] = 90 mg/kg, QD, 24 days of dosing

Chain of BTK (Homo sapiens, UniProt Q06187) (Q06187 whole entry): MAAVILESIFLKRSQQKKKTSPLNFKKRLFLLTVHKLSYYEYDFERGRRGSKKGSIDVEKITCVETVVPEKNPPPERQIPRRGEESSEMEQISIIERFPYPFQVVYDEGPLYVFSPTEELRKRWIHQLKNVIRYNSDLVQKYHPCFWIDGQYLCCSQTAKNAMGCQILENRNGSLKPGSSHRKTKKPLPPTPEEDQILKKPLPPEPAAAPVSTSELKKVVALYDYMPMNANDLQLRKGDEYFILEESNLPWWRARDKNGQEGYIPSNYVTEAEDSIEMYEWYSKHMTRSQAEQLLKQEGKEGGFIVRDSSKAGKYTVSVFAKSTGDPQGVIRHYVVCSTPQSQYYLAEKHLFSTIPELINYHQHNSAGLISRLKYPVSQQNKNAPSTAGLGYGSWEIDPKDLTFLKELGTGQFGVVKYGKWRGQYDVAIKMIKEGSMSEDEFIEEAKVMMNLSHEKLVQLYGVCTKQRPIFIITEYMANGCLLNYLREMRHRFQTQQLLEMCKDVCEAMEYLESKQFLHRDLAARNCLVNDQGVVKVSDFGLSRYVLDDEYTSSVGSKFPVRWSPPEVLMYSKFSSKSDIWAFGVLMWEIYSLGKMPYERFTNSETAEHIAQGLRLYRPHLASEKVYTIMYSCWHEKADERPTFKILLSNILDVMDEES

DC50 (BTK [2]) | AUC [3, 6] | AUC [3, 7] | Cmax [3, 8] | AUC [3, 9] | degradation of BTK compared with TEC (TEC kinase) | effects on TEC kinase levels (TEC kinase) | Cmax [5, 6] | AUC [5, 11] | Cmax [5, 11] | Cmax [5, 7] | SMILES | % BTK Remaining (BTK [1]; 1 mg/kg IV, 2 h) | % BTK Remaining (BTK [1]; 1 mg/kg IV, 4 h) | % BTK Remaining (BTK [1]; 1 mg/kg IV, 8 h) | % BTK Remaining (BTK [1]; 1 mg/kg IV, 24 h) | % BTK Remaining (BTK [1]; 30 mg/kg PO, 2 h) | % BTK Remaining (BTK [1]; 30 mg/kg PO, 4 h) | % BTK Remaining (BTK [1]; 30 mg/kg PO, 8 h) | % BTK Remaining (BTK [1]; 30 mg/kg PO, 24 h) | Tumor Growth Inhibition (relative to vehicle) [4, 10] | further results
0.36 nM | 0.148 µM·h | 0.268 µM·h | 22.6 nM | 1.52 µM·h | more potent degradation of BTK than TEC | mild to moderate effects | 10.6 nM | 0.467 µM·h | 34 nM | 18 nM | CN1CCN([C@@H]2CCCN(c3cnc(C(N)=O)c(Nc4ccc(C5CCN(C[C@H]6CCN(c7ccc8c(c7)C(=O)N(C7CCC(=O)NC7=O)C8=O)C6)CC5)cc4)n3)C2)C1=O (stereo partly drawn) [Compound 44] | 6% | 6% | 7% | 9% | 83% | 47% | 22% | 17% | 48% and 51% and 36% | % BTK Remaining (BTK [1]; 1 mg/kg PO, 2 h): 85%; % BTK Remaining (BTK [1]; 1 mg/kg PO, 4 h): 65%; % BTK Remaining (BTK [1]; 1 mg/kg PO, 8 h): 52%; % BTK Remaining (BTK [1]; 1 mg/kg PO, 24 h): 40%; % BTK Remaining (BTK [1]; 10 mg/kg PO, 2 h, 10 mg/kg): 59% and 82%; % BTK Remaining (BTK [1]; 10 mg/kg PO, 4 h, 10 mg/kg): 35% and 42%; % BTK Remaining (BTK [1]; 10 mg/kg PO, 8 h, 10 mg/kg): 22% and 27%; % BTK Remaining (BTK [1]; 10 mg/kg PO, 24 h, 10 mg/kg): 15% and 29%; % BTK Remaining (BTK [1]; 100 mg/kg PO, 2 h): 48%; % BTK Remaining (BTK [1]; 100 mg/kg PO, 4 h): 27%; % BTK Remaining (BTK [1]; 100 mg/kg PO, 8 h): 12%; % BTK Remaining (BTK [1]; 100 mg/kg PO, 24 h): 8%; Tumor Growth Inhibition (relative to vehicle) ([4]; 5 mg/kg, BID, 23 days of dosing): 65%; Tumor Growth Inhibition (relative to vehicle) ([4]; 15 mg/kg, BID, 23 days of dosing): 62%; Tumor Growth Inhibition (relative to vehicle) ([4]; 30 mg/kg, BID, 23 days of dosing): 70% and 78%; Tumor Growth Inhibition (relative to vehicle) ([4]; 60 mg/kg, QD, 23 days of dosing): 70%; AUC [5, 12]: 0.794 µM·h; Cmax [5, 12]: 55.5 nM; AUC [5, 8]: 0.294 µM·h; Cmax [5, 9]: 94.2 nM
1 nM | – | – | – | – | – | – | – | – | – | – | CN1CCN([C@@H]2CCCN(c3cnc(C(N)=O)c(Nc4ccc(C5CCN(CC6CCN(c7ccc(-c8nn(C9CCC(=O)NC9=O)c(=O)n8C)cc7)CC6)CC5)cc4)n3)C2)C1=O (stereo partly drawn) [Compound 121] | – | – | – | – | – | – | – | – | – | –
0.21 nM | – | – | – | – | more potent degradation of BTK than TEC | mild to moderate effects | – | – | – | – | CN1CCN([C@@H]2CCCN(c3cnc(C(N)=O)c(Nc4ccc(C5CCN(CC6CCN(c7ccc8c(=O)n(C9CCC(=O)NC9=O)ccc8c7)CC6)CC5)cc4)n3)C2)C1=O (stereo partly drawn) [Compound 72] | – | – | – | – | – | – | – | – | – | –
– | 0.172 µM·h | 0.582 µM·h | 96 nM | 3.84 µM·h | more potent degradation of BTK than TEC | mild to moderate effects | 20 nM | 0.387 µM·h | 28 nM | 55 nM | CN1CCN([C@H]2CCCN(c3cnc(C(N)=O)c(Nc4ccc(C5CCN(CC6CCN(c7ccc(C(=O)NC8CCC(=O)NC8=O)nc7)CC6)CC5)cc4)n3)C2)C1=O (stereo partly drawn) [Compound 130] | 8% | 6% | 5% | 13% | 6% | <1% | <1% | 1% | 79% | % BTK Remaining (BTK [1]; 10 mg/kg PO, 2 h): 4%; % BTK Remaining (BTK [1]; 10 mg/kg PO, 4 h): <1%; % BTK Remaining (BTK [1]; 10 mg/kg PO, 8 h): <3%; % BTK Remaining (BTK [1]; 10 mg/kg PO, 24 h): <1%; Tumor Growth Inhibition (relative to vehicle) [4, 13]: 58%; Tumor Growth Inhibition (relative to vehicle) [4, 14]: 90%; Tumor Growth Inhibition (relative to vehicle) [4, 15]: 100%; Tumor Growth Inhibition (relative to vehicle) [4, 16]: 100%; AUC [5, 12]: 0.844 µM·h; Cmax [5, 12]: 54 nM; AUC [5, 8]: 1.4 µM·h; Cmax [5, 9]: 177 nM

SMILES | DC50 (BTK [2]) | AUC [3, 6] | AUC [3, 7] | Cmax [3, 8] | AUC [3, 9] | degradation of BTK compared with TEC (TEC kinase) | effects on TEC kinase levels (TEC kinase) | Cmax [5, 6] | AUC [5, 11] | Cmax [5, 11] | Cmax [5, 7] | % BTK Remaining (BTK [1]; 1 mg/kg IV, 2 h) | % BTK Remaining (BTK [1]; 1 mg/kg IV, 4 h) | % BTK Remaining (BTK [1]; 1 mg/kg IV, 8 h) | % BTK Remaining (BTK [1]; 1 mg/kg IV, 24 h) | % BTK Remaining (BTK [1]; 30 mg/kg PO, 2 h) | % BTK Remaining (BTK [1]; 30 mg/kg PO, 4 h) | % BTK Remaining (BTK [1]; 30 mg/kg PO, 8 h) | % BTK Remaining (BTK [1]; 30 mg/kg PO, 24 h) | Tumor Growth Inhibition (relative to vehicle) [4, 10] | further results
NC(=O)c1ncc(N2CCCCC2)nc1Nc1ccc(C2CCN(C[C@@H]3CCN(c4ccc5c(c4)C(=O)N(C4CCC(=O)NC4=O)C5=O)C3)CC2)cc1 (stereo partly drawn) [Compound 149] | 2.3 nM | 0.386 µM·h | 0.72 µM·h | 76 nM | 2.66 µM·h | more potent degradation of BTK than TEC | mild to moderate effects | 42 nM | 0.763 µM·h | 49 nM | 51 nM | 24% | 9% | 4% | 7% | 89% | 51% | 26% | 19% | 29% | % BTK Remaining (BTK [1]; 10 mg/kg PO, 2 h): 81%; % BTK Remaining (BTK [1]; 10 mg/kg PO, 4 h): 39%; % BTK Remaining (BTK [1]; 10 mg/kg PO, 8 h): 17%; % BTK Remaining (BTK [1]; 10 mg/kg PO, 24 h): 12%; % BTK Remaining (BTK [1]; 100 mg/kg PO, 2 h): 97%; % BTK Remaining (BTK [1]; 100 mg/kg PO, 4 h): 56%; % BTK Remaining (BTK [1]; 100 mg/kg PO, 8 h): 20%; % BTK Remaining (BTK [1]; 100 mg/kg PO, 24 h): 12%; Tumor Growth Inhibition (relative to vehicle) [4, 13]: 27%; Tumor Growth Inhibition (relative to vehicle) [4, 14]: 17%; Tumor Growth Inhibition (relative to vehicle) [4, 15]: 43%; Tumor Growth Inhibition (relative to vehicle) [4, 16]: 59%; AUC [5, 12]: 1.48 µM·h; Cmax [5, 12]: 88 nM; AUC [5, 8]: 0.714 µM·h; Cmax [5, 9]: 159 nM

From patent publication US12600732B2, “Bifunctional compounds for degrading BTK via ubiquitin proteosome pathway” (NURIX THERAPEUTICS, INC., priority 2019, dated 2026)
